Measurements taken from patent publication US8952024B2, “Herbicidal pyrimidone derivatives” (E I du Pont de Nemours and Company, priority 2009, dated 2015).

Key:
Type in all cases: in vivo
[1] = test system: umbrella sedge (Cyperus difformis); assay: Test B flooded paddy test; conditions: for Plant response rating, Flood, Sedge, Umbrella: 250 g ai/ha, flooded paddy test, visual rating on 0 to 100 scale (0 no effect, 100 complete control) after 13 to 15 days; for Plant response rating, Sedge, Umbrella: Flood (flooded paddy test), 13 to 15 days; for Sedge, Umbrella plant response rating: Flood, 31 g ai/ha, scale 0 to 100 (0 no effect, 100 complete control)
Method in brief: (§1)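 Flooded-pot test: water raised to 3 cm above soil when treating, compound put in the water, level unchanged thereafter. Plants were at 2 leaves. Readout after 13 to 15 days, visual, relative to controls; 0 signifies no effect and 100 complete control.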

[2] = test system: barnyardgrass (Echinochloa crus-galli); assay: Test B flooded paddy test; conditions: for Plant response rating, Flood, Barnyardgrass: 250 g ai/ha, flooded paddy test, visual rating on 0 to 100 scale (0 no effect, 100 complete control) after 13 to 15 days; for Plant response rating, Barnyardgrass: Flood (flooded paddy test), 13 to 15 days; for Barnyardgrass plant response rating: Flood, 31 g ai/ha, scale 0 to 100 (0 no effect, 100 complete control)
Method in brief: as §1

[3] = test system: ducksalad (Heteranthera limosa); assay: Test B flooded paddy test; conditions: for Plant response rating, Flood, Ducksalad: 250 g ai/ha, flooded paddy test, visual rating on 0 to 100 scale (0 no effect, 100 complete control) after 13 to 15 days; for Plant response rating, Ducksalad: Flood (flooded paddy test), 13 to 15 days; for Ducksalad plant response rating: Flood, 31 g ai/ha, scale 0 to 100 (0 no effect, 100 complete control)
Method in brief: as §1

rice (Oryza sativa) = assay: Test B flooded paddy test; conditions: for Plant response rating, Flood, Rice: 250 g ai/ha, flooded paddy test, visual rating on 0 to 100 scale (0 no effect, 100 complete control) after 13 to 15 days; for Plant response rating, Rice: Flood (flooded paddy test), 13 to 15 days; for Rice plant response rating: Flood, 31 g ai/ha, scale 0 to 100 (0 no effect, 100 complete control)
Method in brief: as §1

[4] = test system: galium (catchweed bedstraw, Galium aparine); assay: Test B pre-/postemergence plant response; conditions: Preemergence
Method in brief: (§2)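 Ratings reflect visual comparison with untreated controls 13 to 15 days after application, from 0 (no effect) to 100 (complete control). Application was preemergence to seeded loam/sand soil or postemergence to 1- to 4-leaf plants, with compound in a non-phytotoxic, surfactant-containing solvent.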

[5] = test system: sunflower (common oilseed sunflower, Helianthus annuus); assay: Test B pre-/postemergence plant response; conditions: Preemergence
Method in brief: as §2

[6] = test system: nightshade (eastern black nightshade, Solanum ptycanthum); assay: Test B pre-/postemergence plant response; conditions: Preemergence
Method in brief: as §2

corn (Zea mays) = assay: Test A pre-/postemergence plant response
Method in brief: (§3)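 Pre: directed soil spray on seeded loam/sand blend. Post: same formulation (non-phytotoxic solvent + surfactant) on 2–10 cm plants, 1–2 leaf stage. Greenhouse ~10 d; visual injury score 0–100 vs untreated.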

[7] = test system: pigweed (Amaranthus retroflexus); assay: Test A pre-/postemergence plant response
Method in brief: as §3

[8] = test system: barnyardgrass (Echinochloa crus-galli); assay: Test A pre-/postemergence plant response
Method in brief: as §3

[9] = test system: giant foxtail (Setaria faberii); assay: Test A pre-/postemergence plant response
Method in brief: as §3

[10] = 62 g ai/ha, scale of 0 to 100 where 0 is no effect and 100 is complete control
[11] = 125 g ai/ha, scale 0 to 100, 0 is no effect, 100 is complete control
[12] = 125 g ai/ha, scale 0 to 100, 0 no effect, 100 complete control
[13] = 31 g ai/ha, scale 0 to 100 (0 no effect, 100 complete control)
[14] = 62 g ai/ha, scale 0 to 100, 0 no effect, 100 complete control
[15] = Postemergence, 125 g ai/ha, visual injury, 0 to 100 scale (0 no effect, 100 complete control), approx. ten days
[16] = Postemergence, 500 g ai/ha, 0 to 100 scale, 0 = no effect, 100 = complete control, approx. ten days
[17] = Preemergence, 125 g ai/ha, 0 to 100 scale, 0 = no effect, 100 = complete control
[18] = Preemergence, 500 g ai/ha, visual injury, 0 to 100 scale (0 no effect, 100 complete control), approx. ten days
[19] = Postemergence, 125 g ai/ha, 0 to 100 scale where 0 is no effect and 100 is complete control

SMILES: O=C1CCCC(O)=C1C(=O)c1cnc(-c2cccc(Br)c2)n(-c2ccccc2)c1=O [Compound 69]
- Plant response rating, Flood, Sedge, Umbrella [1]: 40
- Plant response rating, Sedge, Umbrella [1, 10]: 0
- Plant response rating, Sedge, Umbrella [1, 11]: 0
- Sedge, Umbrella plant response rating [1]: 0
- Plant response rating, Flood, Barnyardgrass [2]: 30
- Plant response rating, Barnyardgrass [2, 10]: 0
- Plant response rating, Barnyardgrass [2, 11]: 20
- Barnyardgrass plant response rating [2]: 0
- Plant response rating, Flood, Ducksalad [3]: 20
- Plant response rating, Ducksalad [3, 10]: 0
- Plant response rating, Ducksalad [3, 11]: 0
- Ducksalad plant response rating [3]: 0
- Plant response rating, Flood, Rice (rice (Oryza sativa)): 0
- Plant response rating, Rice (rice (Oryza sativa); [10]): 0
- Plant response rating, Rice (rice (Oryza sativa); [11]): 0
- Rice plant response rating (rice (Oryza sativa)): 0
- Plant response rating, Galium [4, 12]: 0
- Plant response rating, Sunflower [5, 13]: 0
- Plant response rating, Sunflower [5, 14]: 0
- Plant response rating, Sunflower [5, 12]: 5
- Plant response rating, Nightshade ([6]; 16 g ai/ha, scale 0 to 100, 0 no effect, 100 complete control): 80
- Plant response rating, Nightshade [6, 13]: 95
- Plant response rating, Nightshade [6, 14]: 98
- Plant response rating, Nightshade [6, 12]: 98
- Corn plant response rating (corn (Zea mays); [15]): 20
- Plant response rating, Corn (corn (Zea mays); [16]): 40
- Plant response rating, Corn (corn (Zea mays); [17]): 0
- Plant response rating, Corn (corn (Zea mays); [18]): 0
- Pigweed plant response rating [7, 15]: 100
- Plant response rating, Pigweed [7, 16]: 100
- Plant response rating, Pigweed [7, 17]: 100
- Plant response rating, Pigweed [7, 18]: 100
- Barnyardgrass plant response rating [8, 15]: 90
- Plant response rating, Barnyardgrass [8, 16]: 100
- Plant response rating, Barnyardgrass [8, 17]: 10
- Plant response rating, Barnyardgrass [8, 18]: 60
- Foxtail, Giant plant response rating [9, 15]: 80
- Plant response rating, Foxtail, Giant [9, 16]: 90
- Plant response rating, Foxtail, Giant [9, 17]: 40
- Plant response rating, Foxtail, Giant [9, 18]: 70

SMILES: CCCc1ncc(C(=O)C2=C(O)CCCC2=O)c(=O)n1CCC [Compound 72]
- Plant response rating, Flood, Sedge, Umbrella [1]: 30
- Plant response rating, Sedge, Umbrella [1, 10]: 0
- Plant response rating, Sedge, Umbrella [1, 11]: 0
- Sedge, Umbrella plant response rating [1]: 0
- Plant response rating, Flood, Barnyardgrass [2]: 30
- Plant response rating, Barnyardgrass [2, 10]: 0
- Plant response rating, Barnyardgrass [2, 11]: 0
- Barnyardgrass plant response rating [2]: 0
- Plant response rating, Flood, Ducksalad [3]: 0
- Plant response rating, Ducksalad [3, 10]: 0
- Plant response rating, Ducksalad [3, 11]: 0
- Ducksalad plant response rating [3]: 0
- Plant response rating, Flood, Rice (rice (Oryza sativa)): 20
- Plant response rating, Rice (rice (Oryza sativa); [10]): 0
- Plant response rating, Rice (rice (Oryza sativa); [11]): 20
- Rice plant response rating (rice (Oryza sativa)): 0
- Plant response rating, Galium ([4]; 250 g ai/ha, 0 to 100 scale): 85
- Plant response rating, Galium [4, 13]: 0
- Plant response rating, Galium [4, 14]: 85
- Plant response rating, Galium [4, 12]: 85
- Plant response rating, Sunflower [5, 13]: 25
- Plant response rating, Sunflower [5, 14]: 25
- Plant response rating, Sunflower [5, 12]: 65
- Plant response rating, Nightshade [6, 13]: 95
- Plant response rating, Nightshade [6, 14]: 95
- Plant response rating, Nightshade [6, 12]: 98
- Corn plant response rating (corn (Zea mays); [15]): 0
- Plant response rating, Corn (corn (Zea mays); [16]): 10
- Plant response rating, Corn (corn (Zea mays); [17]): 0
- Plant response rating, Corn (corn (Zea mays); [18]): 20
- Pigweed plant response rating [7, 15]: 80
- Plant response rating, Pigweed [7, 16]: 100
- Plant response rating, Pigweed [7, 17]: 50
- Plant response rating, Pigweed [7, 18]: 90
- Barnyardgrass plant response rating [8, 15]: 80
- Plant response rating, Barnyardgrass [8, 16]: 90
- Plant response rating, Barnyardgrass [8, 17]: 10
- Plant response rating, Barnyardgrass [8, 18]: 60
- Foxtail, Giant plant response rating [9, 15]: 40
- Plant response rating, Foxtail, Giant [9, 16]: 60
- Plant response rating, Foxtail, Giant [9, 17]: 0
- Plant response rating, Foxtail, Giant [9, 18]: 30

SMILES: CCCCn1c(CCC)ncc(C(=O)C2=C(O)CCCC2=O)c1=O [Compound 75]
- Plant response rating, Flood, Sedge, Umbrella [1]: 50
- Plant response rating, Sedge, Umbrella [1, 10]: 0
- Plant response rating, Flood, Barnyardgrass [2]: 60
- Plant response rating, Barnyardgrass [2, 10]: 20
- Plant response rating, Flood, Ducksalad [3]: 50
- Plant response rating, Ducksalad [3, 10]: 30
- Plant response rating, Flood, Rice (rice (Oryza sativa)): 45
- Plant response rating, Rice (rice (Oryza sativa); [10]): 0
- Plant response rating, Galium [4, 13]: 60
- Plant response rating, Galium [4, 14]: 85
- Plant response rating, Galium [4, 12]: 95
- Galium plant response rating ([4]; 250 g ai/ha, 0 to 100 scale): 98
- Plant response rating, Sunflower [5, 13]: 30
- Plant response rating, Sunflower [5, 14]: 55
- Plant response rating, Sunflower [5, 12]: 75
- Sunflower plant response rating ([5]; 250 g ai/ha, 0 to 100 scale): 85
- Plant response rating, Nightshade [6, 13]: 95
- Plant response rating, Nightshade [6, 14]: 98
- Plant response rating, Nightshade [6, 12]: 98
- Nightshade plant response rating ([6]; 250 g ai/ha, 0 to 100 scale): 100
- Plant response rating, Corn (corn (Zea mays); [19]): 0
- Plant response rating, Corn (corn (Zea mays); [16]): 50
- Plant response rating, Corn (corn (Zea mays); [17]): 0
- Plant response rating, Corn (corn (Zea mays); [18]): 0
- Plant response rating, Pigweed [7, 19]: 100
- Plant response rating, Pigweed [7, 16]: 100
- Plant response rating, Pigweed [7, 17]: 100
- Plant response rating, Pigweed [7, 18]: 100
- Plant response rating, Barnyardgrass [8, 19]: 80
- Plant response rating, Barnyardgrass [8, 16]: 90
- Plant response rating, Barnyardgrass [8, 17]: 40
- Plant response rating, Barnyardgrass [8, 18]: 80
- Plant response rating, Foxtail, Giant [9, 19]: 80
- Plant response rating, Foxtail, Giant [9, 16]: 90
- Plant response rating, Foxtail, Giant [9, 17]: 50
- Plant response rating, Foxtail, Giant [9, 18]: 70
